This passage reports inhibition, Activity and IC50 results from ChEMBL document CHEMBL4138296, “Nonacidic Chemotype Possessing N-Acylated Piperidine Moiety as Potent Farnesoid X Receptor (FXR) Antagonists” (ACS Med Chem Lett, 2018).

Broadly, the IC50 is the point on the concentration scale where inhibition reaches its midpoint.

Active and inactive are the calls of the source. The calls are words filed in the database; no cut-off is given here.

For series [1], the target named is T1, Peroxisome proliferator-activated receptor gamma (Homo sapiens) (UniProt P37231).
T1 sequence (whole entry): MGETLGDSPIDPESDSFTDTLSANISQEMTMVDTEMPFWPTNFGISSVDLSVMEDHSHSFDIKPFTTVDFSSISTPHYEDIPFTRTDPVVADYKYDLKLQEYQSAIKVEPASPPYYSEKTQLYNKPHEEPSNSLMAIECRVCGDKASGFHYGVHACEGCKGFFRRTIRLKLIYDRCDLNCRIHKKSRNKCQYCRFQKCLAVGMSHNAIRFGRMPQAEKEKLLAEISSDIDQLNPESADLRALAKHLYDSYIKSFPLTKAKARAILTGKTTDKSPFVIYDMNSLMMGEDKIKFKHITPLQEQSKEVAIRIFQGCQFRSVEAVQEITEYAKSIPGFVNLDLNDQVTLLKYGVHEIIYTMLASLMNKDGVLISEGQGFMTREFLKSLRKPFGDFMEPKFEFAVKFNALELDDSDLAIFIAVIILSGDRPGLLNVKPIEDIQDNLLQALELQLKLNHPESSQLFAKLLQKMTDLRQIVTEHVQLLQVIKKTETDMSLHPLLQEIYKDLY
As to the kind of experiment: Antagonist activity at PPARgamma (unknown origin) assessed as inhibition of GW1929-induced response at 1 uM by luciferase reporter gene assay. (In general: In a reporter assay the amount or activity of a reporter protein is the signal.)

Series [2] addresses T2, Peroxisome proliferator-activated receptor alpha (Homo sapiens) (UniProt Q07869).
T2 sequence (whole entry): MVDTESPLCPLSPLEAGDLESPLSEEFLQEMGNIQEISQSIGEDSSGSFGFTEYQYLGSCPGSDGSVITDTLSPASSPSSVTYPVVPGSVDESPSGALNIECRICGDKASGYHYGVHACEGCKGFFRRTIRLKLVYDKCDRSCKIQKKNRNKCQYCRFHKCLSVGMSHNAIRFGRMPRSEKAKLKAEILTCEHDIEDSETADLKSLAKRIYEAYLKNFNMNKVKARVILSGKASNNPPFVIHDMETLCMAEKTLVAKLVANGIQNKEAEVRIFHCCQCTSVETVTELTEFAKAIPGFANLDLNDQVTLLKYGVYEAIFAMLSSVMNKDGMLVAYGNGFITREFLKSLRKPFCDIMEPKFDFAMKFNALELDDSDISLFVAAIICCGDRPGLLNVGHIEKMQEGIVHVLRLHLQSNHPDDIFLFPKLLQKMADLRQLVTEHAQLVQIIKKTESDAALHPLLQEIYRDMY
The experiment in a line: Antagonist activity at PPARalpha (unknown origin) assessed as inhibition of GW7647-induced response at 1 uM by luciferase reporter gene assay.

Series [3] has as its target T3, G-protein coupled bile acid receptor 1 (Homo sapiens) (UniProt Q8TDU6).
T3 sequence (whole entry): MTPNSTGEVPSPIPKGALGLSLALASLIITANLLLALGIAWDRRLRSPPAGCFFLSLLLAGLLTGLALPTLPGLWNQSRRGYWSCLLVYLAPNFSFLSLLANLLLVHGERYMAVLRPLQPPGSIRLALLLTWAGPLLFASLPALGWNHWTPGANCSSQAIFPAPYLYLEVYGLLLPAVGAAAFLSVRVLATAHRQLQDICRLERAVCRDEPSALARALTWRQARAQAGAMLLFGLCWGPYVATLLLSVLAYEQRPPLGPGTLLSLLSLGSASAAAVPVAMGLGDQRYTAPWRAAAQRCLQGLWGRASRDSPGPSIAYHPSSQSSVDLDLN
The experiment in a line: Agonist activity at TGR5 (unknown origin) at 1 uM by luciferase reporter gene assay. Type of series: functional.

In series [4] the test system is 3T3-L1. The experiment in a line: Antiadipogenic activity in mouse 3T3L1 cells assessed as inhibition of CDCA-induced intracellular lipid droplets after 6 days by Oil Red O staining based assay. Type of series: functional, cell-based.
The subject of series [5] is 3T3-L1. The experiment in a line: Cytotoxicity against mouse 3T3L1 cells assessed as reduction in cell viability measured up to 10 uM after 6 days by CCK-8 assay. It counts as cell-based. The conditions noted are these: 3t3-l1, 144 h. In general terms: Tetrazolium dyes change colour on reduction, which living cells bring about.
Series [6] has as its target T4, Retinoic acid receptor RXR-alpha (Homo sapiens) (UniProt P19793).
T4 sequence (whole entry): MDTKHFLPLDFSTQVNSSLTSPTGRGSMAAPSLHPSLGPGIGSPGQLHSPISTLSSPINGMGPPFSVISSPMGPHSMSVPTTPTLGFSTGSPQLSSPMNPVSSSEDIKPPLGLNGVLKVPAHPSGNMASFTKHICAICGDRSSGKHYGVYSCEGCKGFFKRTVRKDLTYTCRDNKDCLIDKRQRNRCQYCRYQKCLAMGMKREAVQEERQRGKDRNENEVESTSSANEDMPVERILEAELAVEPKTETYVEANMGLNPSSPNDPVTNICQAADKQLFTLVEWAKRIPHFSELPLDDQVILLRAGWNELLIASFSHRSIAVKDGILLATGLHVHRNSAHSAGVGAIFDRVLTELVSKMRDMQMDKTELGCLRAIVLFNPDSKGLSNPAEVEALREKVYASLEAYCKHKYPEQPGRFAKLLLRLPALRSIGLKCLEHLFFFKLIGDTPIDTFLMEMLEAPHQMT
As to the kind of experiment: Antagonist activity at human RXRalpha expressed in HEK293T cells assessed as inhibition of 9-cis-retinoic acid-induced response at 1 uM after 24 hrs by luciferase reporter gene assay. Type of series: cell-based.

The test system of the next series is Hep 3B2. The experiment in a line: Cytotoxicity against human Hep3B cells assessed as reduction in cell viability by MTT assay. Type of series: functional, cell-based.
Series [7] has as its target T5, Retinoic acid receptor alpha (Homo sapiens) (UniProt P10276).
T5 sequence (whole entry): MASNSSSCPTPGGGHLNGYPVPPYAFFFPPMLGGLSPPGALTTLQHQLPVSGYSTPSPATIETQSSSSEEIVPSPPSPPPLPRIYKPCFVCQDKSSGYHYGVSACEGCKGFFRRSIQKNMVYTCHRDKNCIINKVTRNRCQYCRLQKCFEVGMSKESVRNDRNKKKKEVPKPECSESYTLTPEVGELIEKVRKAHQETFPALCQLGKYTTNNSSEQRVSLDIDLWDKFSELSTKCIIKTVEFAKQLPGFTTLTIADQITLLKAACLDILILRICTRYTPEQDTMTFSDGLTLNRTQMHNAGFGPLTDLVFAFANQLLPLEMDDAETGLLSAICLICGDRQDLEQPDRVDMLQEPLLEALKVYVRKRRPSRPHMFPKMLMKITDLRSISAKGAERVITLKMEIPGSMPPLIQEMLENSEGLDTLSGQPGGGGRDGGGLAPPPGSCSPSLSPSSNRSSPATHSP
As to the kind of experiment: Antagonist activity at RARalpha (unknown origin) assessed as inhibition of ATRA-induced response at 1 uM by luciferase reporter gene assay.

Series [8] has as its target T4, Retinoic acid receptor RXR-alpha (Homo sapiens). The experiment in a line: Agonist activity at human RXRalpha expressed in HEK293T cells at 1 uM by luciferase reporter gene assay. It counts as cell-based.
The subject of series [9] is 3T3-L1. The experiment in a line: Antiadipogenic activity in mouse 3T3L1 cells assessed as inhibition of CDCA-induced triglyceride accumulation after 6 days. It counts as functional, cell-based.

Turning to `Cc1ccc2nc([C@H](CC3CCN(C(=O)C(C)C)CC3)N3C(=O)CN(c4ccc(Oc5ccccc5)cc4)C3=O)n(C)c2c1`, the inhibition entry in series [1], in [2], in series [6] and in series [7] was “inactive” in each case. For the same compound, the result in series [3] and in series [8] was inactive. The inhibition result in the series with 3T3-L1 [4] and with 3T3-L1 [9] was “Dose-dependent effect” each time. Also, the Activity entry in the series on 3T3-L1 [5] is “Non-Toxic”. The IC50 in the series with Hep 3B2 was > 100 µM.
